Laboratory results taken from patent publication US20210177732A1, “COMBINATION OF EXTRACTS OF QUINQUINA AND OF LEONTOPODIUM ALPINUM AND OF THE MANGANESE SALT OF L-PYRROLIDONE CARBOXYLIC ACID IN THE TREATMENT OF ALOPECIA” (PIERRE FABRE DERMO-COSMETIQUE, priority 2018, published 2021).

B1: Wnt3a: positive control, Wnt3a protein at 10 nM (protein, UniProt P56704 19-352, looked up)
Protein Wnt-3a: SYPIWWSLAVGPQYSSLGSQPILCASIPGLVPKQLRFCRNYVEIMPSVAEGIKIGIQECQHQFRGRRWNCTTVHDSLAIFGPVLDKATRESAFVHAIASAGVAFAVTRSCAEGTAAICGCSSRHQGSPGKGWKWGGCSEDIEFGGMVSREFADARENRPDARSAMNRHNNEAGRQAIASHMHLKCKCHGLSGSCEVKTCWWSQPDFRAIGDFLKDKYDSASEMVVEKHRESRGWVETLRPRYTYFKVPTERDLVYYEASPNFCEPNPETGSFGTRDRTCNVSSHGIDGCDLLCCGRGHNARAERRREKCRCVFHWCCYVSCQECTRVYDVHTCK

Tested on: Wnt/β-catenin pathway
Assay: Activation of the Wnt/β-catenin pathway, TCF/LEF luciferase reporter in dermal papilla cells derived from human hair follicles
Type: cell-based
Conditions: human follicular dermal papilla cells, 24 h incubation, Wnt3a 10 nM, Mn-PCA 500 μM, edelweiss 30 μg/mL; for Average RLU (luminescence due to luciferase expression): average of 3 donors (6 experiments), cinchona 10 μg/mL, combination at same concentrations, control 410.2; for activation of the Wnt-β-catenin pathway versus control: combination 10 μg/mL + 500 μM + 30 μg/mL
Procedure: The aim of this study is to evaluate the effects of the combination of an extract of cinchona, manganese salt of L-pyrrolidone carboxylic acid and an extract of Leontopodium alpinum on the activation of the Wnt/β-catenin pathway on dermal papilla cells derived from human hair follicles.
The studies are carried out on human cells derived from the dermal papillae of the follicles of three donors. The cells are inoculated in 96-well plates and cultured for 24 h with the necessary supplements. The cells are incubated with specific reagents in order to be transfected with a lentivirus (expressing the luciferase gene under the control of the Wnt/β-catenin promoter (TCF/LEF transcriptional response element). The transfected cells are incubated for 24 hours with the products to be tested, i.e. either with an extract of cinchona (10 μg/ml) diluted in DMSO, or with the manganese salt of L-pyrrolidone carboxylic acid (500 μM) diluted in water, or with an extract of Leontopodium alpinum (30 μg/ml) also diluted in water, or with the combination of the three compounds at the same concentrations as above. The cinchona used in this study is harvested in Ecuador, in the forests of Echeandia. The extract of Leontopodium alpinum tested in this study comes from a variety called Leontopodium alpinum Helvetia. The extract tested corresponds to the commercial material Alpaflor® from the supplier DSM. The manganese salt of L-pyrrolidone carboxylic acid tested in this study corresponds to the commercial material Mangalidone® from the supplier Solabia. It is obtained by cyclisation of glutamic acid of plant origin. Its INCI name is manganese PCA and its CAS number is 29193-02-2. A positive control (Wnt3a protein at 10 nM) is also tested. Activation of the Wnt/β-catenin pathway is highlighted by the quantification of luminescence due to luciferase expression.
A statistical analysis is performed, an intergroup comparison is made by a repeated measures ANOVA followed by Dunnett's post-test on the raw data.

| Molecule | Average RLU (luminescence due to luciferase expression) | activation of the Wnt-β-catenin pathway versus control |
| --- | --- | --- |
| O=C1CC[C@@H](C(=O)[O-])N1.O=C1CC[C@@H](C(=O)[O-])N1.[Mn+2] [Mn-PCA (L), manganese salt of L-pyrrolidone carboxylic acid] | 735.2 RLU | +77±17% |
| B1 | 2366.9 RLU | +451±93% |
